Test results reported in patent publication US5145960A, “Pyrimidinyl tetrahydrofurans” (priority 1991, dated 1992).

What was measured:
Format in all cases: cell-based
[1] = system: HSV-1 (herpes simplex virus type 1); assay: HSV-1 (strain schooler) plaque reduction in WI-38 cell monolayers; settings: Human alphaherpesvirus 1, 96 h; WI-38 cells; at least 50% plaque reduction; 4 days at 37° C.; read-out: ID50 HSV-1 (strain schooler)
[2] = system: VZV (varicella-zoster virus), strain Ellen; assay: VZV (strain Ellen) plaque reduction in WI-38 cell monolayers; settings: Human alphaherpesvirus 3; WI-38 cells; at least 50% plaque reduction; 5-7 days at 37° C.; read-out: ID50 VZV (strain Ellen)
[3] = system: HCMV (human cytomegalovirus); assay: HCMV (strain AD169) plaque reduction in WI-38 cell monolayers; settings: Human betaherpesvirus 5, AD169; WI-38 cells; at least 50% plaque reduction; 5-7 days at 37° C.; read-out: ID50 HCMV (strain AD169)
VV (vaccinia virus) = assay: microbe, parasite or virus in culture; settings: Orthopoxvirus vaccinia, WI-38, 96 h, read-out: ID50 VV (strain CL)
[4] = system: HSV-2 (herpes simplex virus type 2); assay: HSV-2 (strain 186) plaque reduction in WI-38 cell monolayers; settings: Human alphaherpesvirus 2, 96 h; WI-38 cells; at least 50% plaque reduction; 4 days at 37° C.; read-out: ID50 HSV-2 (strain 186)
[5] = system: VZV (varicella-zoster virus), strain Oka; assay: VZV (strain Oka) plaque reduction in WI-38 cell monolayers; settings: Human alphaherpesvirus 3, WI-38, read-out: ID50 VZV (strain Oka)

| Structure (SMILES) | IC50 [1] | IC50 [2] | IC50 [3] | IC50 (VV (vaccinia virus)) | IC50 [4] | IC50 [5] |
| --- | --- | --- | --- | --- | --- | --- |
| Nc1nc2c(ncn2[C@@H]2CO[C@H](CO)[C@H]2CO)c(=O)[nH]1 [Example 1, [3S-(3α,4β,5α)]-2-Amino-1,9-dihydro-9-[tetrahydro-4,5-bis(hydroxymethyl)-3-furanyl]-6H-purin-6-one] | 7 µM | 18 to 36 µM | 356 µM | > 356 µM | 1.8 µM |  |
| Nc1ncnc2c1ncn2[C@@H]1CO[C@H](CO)[C@H]1CO [Example 2, [3S-(3α,4β,5α)]-9-[Tetrahydro-4,5-bis(hydroxymethyl)-3-furanyl]-9H-purin-6-amine] | 3.8 to 7.5 µM | 1.9 to 3.8 µM | 1.9 to 3.8 µM | 8 to 19 µM | 3.8 to 7.5 µM |  |
| Cc1cn([C@@H]2CO[C@H](CO)[C@H]2CO)c(=O)[nH]c1=O [Example 3, [3S-(3α,4β,5α)]-5-Methyl-1-[tetrahydro-4,5-bis(hydroxymethyl)-3-furanyl]-2,4(1H,3H)-pyrimidinedione] | 2 to 4 µM | 8 to 19 µM | > 390 µM |  | 195 to 390 µM |  |
| O=c1ccn([C@@H]2CO[C@H](CO)[C@H]2CO)c(=O)[nH]1 [Example 4, [3S-(3α,4β,5α)]-1-[Tetrahydro-4,5-bis(hydroxymethyl)-3-furanyl]-2,4(1H,3H)-pyrimidinedione] | > 413 µM | 41 to 103 µM | > 413 µM |  | > 413 µM |  |
| O=c1[nH]c(=O)n([C@@H]2CO[C@H](CO)[C@H]2CO)cc1I [Example 5, [3S-(3α,4β,5α)]-5-Iodo-1-[tetrahydro-4,5-bis(hydroxymethyl)-3-furanyl]-2,4(1H,3H)-pyrimidinedione] | 68 to 136 µM | 27 to 68 µM | > 272 µM |  | > 272 µM |  |
| Nc1ccn([C@@H]2CO[C@H](CO)[C@H]2CO)c(=O)n1 [Example 6, [3S-(3α,4β,5α)]-4-Amino-1-[tetrahydro-4,5-bis(hydroxymethyl)-3-furanyl]-2(1H)-pyrimidinone] | 21 to 41 µM | 0.2 to 0.4 µM | 41 to 104 µM | 41 to 415 µM | 21 to 41 µM |  |
| O=c1[nH]c(=O)n([C@@H]2CO[C@H](CO)[C@H]2CO)cc1/C=C/Br [Example 7, [3S-(3α(E),4β,5α)]-5-(2-Bromoethenyl)-1-[tetrahydro-4,5-bis(hydroxymethyl)-3-furanyl]-2,4(1H,3H)-pyrimidinedione] | 1.4 to 2.8 µM | > 288 µM | > 288 µM |  | > 288 µM | 1.4 µM |
| Cc1cn([C@@H]2CO[C@H](CO)[C@H]2CO)c(=O)nc1N [Example 8, [3S-(3α,4β,5α)]-4-Amino-5-methyl-1-[tetrahydro-4,5-bis(hydroxymethyl)-3-furanyl]-2(1H)-pyrimidinone] | 293 µM | 40 µM | > 392 µM |  | 392 µM |  |
| Nc1nc(=O)n([C@@H]2CO[C@H](CO)[C@H]2CO)cc1I [Example 9, [3S-(3α,4β ,5α)]-4-Amino-5-iodo-1-[tetrahydro-4,5-bis(hydroxymethyl)-3-furanyl]-2(1H)-pyrimidinone] | 68 to 136 µM | 5 to 14 µM | > 272 µM |  | > 272 µM |  |
